Among the data in patent US20200138827A1, “SMALL MOLECULE MODULATORS OF HUMAN STING” (Curadev Pharma Limited, priority 2017, published 2020) are EC50 values, retold here.

As a reminder, the EC50 is the concentration needed to bring the measured effect to its halfway point.

Structures are written as SMILES.

This test addresses T1, WT/R232 STING protein (Homo sapiens, UniProt Q86WV6, H232R).
T1 construct: host or cells: HEK293T
The experiment in a line: Luciferase reporter assay in HEK293T-hSTING-Luciferase cells, WT/R232. The test is classed as cell-based. As to conditions: 20 hr stimulation, read-out: R232 Activity (EC50 range). From the text: • a) Stable STING expressing cells—Stable HEK293T STING-expressing cell lines were generated using plasmids purchased from Invivogen, Calif., USA, that contain STING cDNA cloned into the pUNO-1 vector under hEF1-HTLV promoter and containing the Blasticidin selection cassette. The plasmids hSTING(R232), hSTING(H232), hSTING(HAQ) were directly procured from Invivogen while hSTING (AQ) and hSTING (Q) were derived from hSTING(HAQ) and hSTING (R232) plasmids respectively by using a PCR based site directed mutagenesis method. These vectors were individually transfected into HEK293T cells using Lipofectamine (Invitrogen) and transfected cells were selected under Blasticidin selection. These transfected cells were further subjected to clonal selection using the limiting dilution method to obtain clonally pure populations of HEK cells transfected with each of the above mentioned human STING variants. Only those clones were selected in which ligand independent activation of STING was minimal. • b) Stable Luciferase reporter gene expressing cells—Stable HEK293T Luciferase reporter gene expressing cell lines were generated using pCDNA4 plasmids under an IRF-inducible promoter. This promoter is comprised of five tandem interferon-stimulated response elements (ISRE) fused to an ISG54 minimal promoter. This vector was transfected into HEK293T cells using Lipofectamine (Invitrogen) and transfected cells were selected under Zeocin selection. These transfected cells were further subjected to clonal selection using the limiting dilution method to obtain clonally pure populations of HEK cells transfected the Luciferase reporter construct. Only those clones were selected in which ligand independent induction of luciferase was minimal.
5×10^5 clonally selected HEK293T-hSTING-Luciferase cells were seeded in 384-well plates in growth medium and stimulated with novel compounds. After 20 hr of stimulation supernatant were removed and secretary reporter gene activity were measured using the Quanti-Luc detection system (Invivogen) on a Spectramax i3X luminometer.
All compounds were first tested in a primary screen using WT/R232 STING protein to obtain a ‘fold-induction’ over baseline levels of protein activity.

T1 sequence (Q86WV6 whole entry H232R): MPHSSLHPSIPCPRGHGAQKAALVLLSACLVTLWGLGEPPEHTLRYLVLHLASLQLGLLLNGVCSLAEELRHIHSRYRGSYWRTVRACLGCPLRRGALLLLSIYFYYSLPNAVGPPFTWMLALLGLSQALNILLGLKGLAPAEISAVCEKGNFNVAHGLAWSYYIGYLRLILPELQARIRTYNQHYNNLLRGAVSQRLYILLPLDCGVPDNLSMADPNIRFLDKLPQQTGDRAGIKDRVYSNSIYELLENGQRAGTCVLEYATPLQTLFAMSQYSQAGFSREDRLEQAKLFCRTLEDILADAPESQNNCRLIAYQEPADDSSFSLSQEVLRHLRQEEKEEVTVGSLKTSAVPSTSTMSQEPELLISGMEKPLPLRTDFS

Regarding `O=C(NCc1ncco1)c1ccc2c(c1)N(Cc1ccccc1)C(=O)CS2` [Example 59, 4-benzyl-N-(oxazol-2-ylmethyl)-3-oxo-3,4-dihydro-2H-benzo[b-1,4]thiazine-6-carboxamide], the concentration for a half-maximal effect (EC50) was over 10 µM.

For the molecule `O=C(NCc1cccc(-c2ccccc2)c1)c1ccc2c(c1)N(Cc1c(F)cccc1Cl)C(=O)CS2` [Example 47, N-([1,1′-biphenyl]-3-ylmethyl)-4-(2-chloro-6-fluorobenzyl)-3-oxo-3,4-dihydro-2H-benzo[b][1,4] thiazine-6-carboxamide], the half-maximal effective concentration (EC50) was over 10 µM. Turning to `N#Cc1ccccc1CN1C(=O)CSc2ccc(C(=O)NCc3ccco3)cc21` [Example 94, 4-(2-cyanobenzyl)-N-(furan-2-ylmethyl)-3-oxo-3,4-dihydro-2H-benzo[b-1,4]thiazine-6-carboxamide], the concentration for a half-maximal effect (EC50) was over 10 µM. Then `O=C(NCc1n[nH]c(=O)c2ccccc12)c1ccc2c(c1)N(Cc1ccccc1)C(=O)CS2` [Example 51, 4-benzyl-3-oxo-N-((4-oxo-3,4-dihydrophthalazin-1-yl)methyl)-3,4-dihydro-2H-benzo[b-1,4]thiazine-6-carboxamide], with over 10 µM; and `O=C(NCc1ccco1)c1ccc2c(c1)N(Cc1ccccc1)CCS2(=O)=O` [Example 252, 4-Benzyl-N-(furan-2-ylmethyl)-3,4-dihydro-2H-benzo[b-1,4]thiazine-6-carboxamide 1,1-dioxide], with over 10 µM.

Regarding `CCOC1Sc2ccc(C(=O)NCc3ccco3)cc2N(Cc2ccccc2F)C1=O` (stereo not drawn) [Example 137, 2-ethoxy-4-(2-fluorobenzyl)-N-(furan-2-ylmethyl)-3-oxo-3,4-dihydro-2H-benzo[b-1,4]thiazine-6-carboxamide], the EC50 was over 10 µM. Then `O=C(NCc1c(F)cc(F)cc1F)c1cnc2c(c1)N(Cc1c(F)cccc1Cl)C(=O)CO2` [Example 239, 1-(2-chloro-6-fluorobenzyl)-2-oxo-N-(2,4,6-trifluorobenzyl)-2,3-dihydro-1H-pyrido[2,3-b-1,4]oxazine-7-carboxamide], with over 10 µM; and `COc1cc(F)c(CN2C(=O)CSc3ccc(C(=O)NCc4c(F)cc(F)cc4F)cc32)c(F)c1` [Example 114, 4-(2,6-difluoro-4-methoxybenzyl)-3-oxo-N-(2,4,6-trifluorobenzyl)-3,4-dihydro-2H-benzo[b][1,4] thiazine-6-carboxamide], with under 1 µM.

For `O=C(NCc1c(F)cc(F)cc1F)c1ccc2c(c1)N(C(=O)c1ccncc1)CCS2` [Example 260, 4-isonicotinoyl-N-(2,4,6-trifluorobenzyl)-3,4-dihydro-2H-benzo[b][1,4]thiazine-6-carboxamide], the EC50 is over 10 µM. `O=C(NCc1ccco1)c1ccc2c(c1)N(Cc1c(F)cccc1Cl)C(=O)CO2` [Example 231, 4-(2-Chloro-6-fluorobenzyl)-N-(furan-2-ylmethyl)-3-oxo-3,4-dihydro-2H-benzo[b-1,4]oxazine-6-carboxamide]: the EC50 is over 10 µM. On to `CC1Sc2ccc(C(=O)NCc3c(F)cc(F)cc3F)nc2N(Cc2cc(F)cc(F)c2)C1=O` (stereo not drawn) [Example 185, 4-(3,5-difluorobenzyl)-2-methyl-3-oxo-N-(2,4,6-trifluorobenzyl)-3,4-dihydro-2H-pyrido[3,2-b-1,4]thiazine-6-carboxamide], for which the EC50 fell in the range of 1 to 10 µM.

Consider `Cc1cccc(CNC(=O)c2ccc3c(c2)N(Cc2ccccc2Cl)C(=O)C(C)S3)c1` (stereo not drawn) [Example 143, 4-(2-chlorobenzyl)-2-methyl-N-(3-methylbenzyl)-3-oxo-3,4-dihydro-2H-benzo[b-1,4]thiazine-6-carboxamide], for which the concentration giving a half-maximal response (EC50) lay within 1 to 10 µM. With `O=C(NCc1ccco1)c1ccc2c(c1)N(CC(O)c1ccccc1)C(=O)CS2` (stereo not drawn) [Example 17, N-(furan-2-ylmethyl)-4-(2-hydroxy-2-phenylethyl)-3-oxo-3,4-dihydro-2H-benzo[b-1,4]thiazine-6-carboxamide] the figure was over 10 µM; with `Cc1nc(CNC(=O)c2ccc3c(c2)N(Cc2ccccc2)C(=O)CS3)cs1` [Example 77, 4-benzyl-N-((2-methylthiazol-4-yl)methyl)-3-oxo-3,4-dihydro-2H-benzo[b-1,4]thiazine-6-carboxamide], over 10 µM; with `O=C(NCc1cccc2ccccc12)c1ccc2c(c1)N(Cc1ccccc1F)C(=O)CS2` [Example 26, 4-(2-fluorobenzyl)-N-(naphthalen-1-ylmethyl)-3-oxo-3,4-dihydro-2H-benzo[b-1,4]thiazine-6-carboxamide], over 10 µM.

In the case of `CC1(O)Sc2ccc(C(=O)NCc3c(F)cc(F)cc3F)cc2N(Cc2c(F)cccc2Cl)C1=O` (stereo not drawn) [Example 164, 4-(2-chloro-6-fluorobenzyl)-2-hydroxy-2-methyl-3-oxo-N-(2,4,6-trifluorobenzyl)-3,4-dihydro-2H-benzo[b][1,4] thiazine-6-carboxamide], the concentration for a half-maximal effect (EC50) fell in the range of 1 to 10 µM. With `O=C(NCc1ccco1)c1ccc2c(c1)N(Cc1ccccc1)CCS2` [Example 246, 4-Benzyl-N-(furan-2-ylmethyl)-3,4-dihydro-2H-benzo[b-1,4]thiazine-6-carboxamide] the figure was over 10 µM. With `CC1Oc2ncc(C(=O)NCc3c(F)cc(F)cc3F)cc2N(Cc2cc(F)cc(F)c2)C1=O` (stereo not drawn) [Example 240, 1-(3,5-difluorobenzyl)-3-methyl-2-oxo-N-(2,4,6-trifluorobenzyl)-2,3-dihydro-1H-pyrido[2,3-b-1,4]oxazine-7-carboxamide] the figure was 1 to 10 µM; with `O=C(NCc1ccco1)c1ccc2c(c1)N(Cc1ccccc1C(F)(F)F)C(=O)CS2` [Example 30, N-(furan-2-ylmethyl)-3-oxo-4-(2-(trifluoro-methyl)benzyl)-3,4-dihydro-2H-benzo[b-1,4]thiazine-6-carboxamide], over 10 µM. With `CS(=O)(=O)NCCC1Sc2ccc(C(=O)NCc3c(F)cc(F)cc3F)cc2N(Cc2cc(F)cc(F)c2)C1=O` (stereo not drawn) [Example 170, 4-(3,5-difluorobenzyl)-2-(2-(methyl-sulfonamido)ethyl)-3-oxo-N-(2,4,6-trifluorobenzyl)-3,4-dihydro-2H-benzo[b] [1,4]thiazine-6-carboxamide] the figure was over 10 µM; with `O=C(NCc1cccc(Cl)c1Cl)c1ccc2c(c1)N(Cc1ccccc1)C(=O)CS2` [Example 55, 4-benzyl-N-(2,3-dichlorobenzyl)-3-oxo-3,4-dihydro-2H-benzo[b-1,4]thiazine-6-carboxamide], over 10 µM; with `CC(NC(=O)c1ccc2c(c1)N(Cc1ccc(Cl)cc1)C(=O)CS2)c1ccccc1` (stereo not drawn) [Example 125, 4-(4-chlorobenzyl)-3-oxo-N-(1-phenylethyl)-3,4-dihydro-2H-benzo[b-1,4]thiazine-6-carboxamide], over 10 µM. Take `O=C(NCc1ccco1)c1cnc2c(c1)N(Cc1c(F)cccc1Cl)C(=O)CS2` [Example 177, 1-(2-Chloro-6-fluorobenzyl)-N-(furan-2-ylmethyl)-2-oxo-2,3-dihydro-1H-pyrido[2,3-b-1,4]thiazine-7-carboxamide]: the EC50 is over 10 µM. With `O=C(NCc1ccco1)c1ccc2c(c1)N(Cc1c(F)cccc1F)C(=O)CS2` [Example 101, 4-(2,6-difluorobenzyl)-N-(furan-2-ylmethyl)-3-oxo-3,4-dihydro-2H-benzo[b-1,4]thiazine-6-carboxamide] the figure was 1 to 10 µM.
